Data taken from publication PMC9031804, “The Peptide-Drug Conjugate TH1902: A New Sortilin Receptor-Mediated Cancer Therapeutic against Ovarian and Endometrial Cancers” (Cancers, 2022).

Assays:
[1] = ref [38]; cited from earlier work
Text: Taxanes, mainly paclitaxel and docetaxel, are well-known microtubule stabilizers used in various cancer including ovarian and endometrial cancer first-line therapies in the last thirty years. […] Here, the new chemical entity TH1902 is distinct from the docetaxel molecule as it selectively exploits SORT1’s internalization properties to trigger cell apoptosis in ES-2 and ...

[2] = test system: A2780 ovarian cancer xenografts; assay: A2780 ovarian cancer xenograft tumor growth; type: in vivo, human tumor in female athymic nude mice; settings: single agent 10 mg/kg IV bi-weekly
Text: Animals were obtained from Charles River Laboratories, Inc. and allowed to acclimate for 5 days before experiments. Female CD-1 nude mice (Crl:CD1-Foxn1^nu, 4–6 weeks old; ES-2) or athymic nude mice (Crl:NU(NCr)-Foxn1^nu, 4–6 weeks old; SKOV3, A2780, AN3-CA) were used for the xenograft tumor models. Mice were maintained in a pathogen-free environment and handled in accordance with the Guidelines of the Canadian Council on Animal Care. Animal protocols were approved by the Institutional Animal Care and Use Committee of Université du Québec à Montréal (0620-C1R1-897-0621).
Tumor xenografts were established by subcutaneous inoculation of 5 × 10^6 cells (ES-2) or 7 × 10^6 cells (SKOV3) in 150 µL of HBSS; other xenografts were established by subcutaneous inoculation of 5 × 10^6 cells (A2780) or 2 × 10^6 cells (AN3-CA) in 150 µL of HBSS/Matrigel (50:50). All cells were injected into the right flanks of immunodeficient mice under light isoflurane anesthesia. The injection schedules and doses of injected substances are detailed in the figures. Briefly, when palpable ES-2, SKOV3 or AN3-CA tumors reached a volume of ~100 mm^3, mice were treated weekly with either vehicle, docetaxel (3.75 or 15 mg/kg) or TH1902 (8.75 or 35 mg/kg) at equivalent docetaxel amounts via intravenous (IV) tail vein injection. Note that three cycles of 15 mg/kg docetaxel is the maximum tolerated dose in mice and that 35 mg/kg TH1902 contains the same quantity of docetaxel (bis-linked to the peptide). In A2780 xenografts, when palpable tumors reached a volume of ~250 mm^3, mice were treated with either vehicle, paclitaxel (10 mg/kg, IV), carboplatin (40 mg/kg, intraperitoneal (IP)), docetaxel (10 mg/kg, IV) or TH1902 (23 mg/kg, IV) bi-weekly as single agents or once on Day-0 as combinations with carboplatin. For combination treatments, both taxanes and TH1902 were injected 1 h following carboplatin administrations at the doses previously described. Injectable solutions were prepared as follows: TH1902 was solubilized at 10 mg/mL in 10% Tween-80 in D5W (pH 4.3, w/v) then further diluted with D5W; docetaxel was solubilized at 25 mg/mL in ethanol and Tween-80 (50/50, v/v) then further diluted with D5W; paclitaxel was solubilized at 25 mg/mL in ethanol and Cremophor EL (50/50, v/v) then further diluted in saline; carboplatin was solubilized at 50 mg/mL in water then further diluted in a solution of 30% PEG400 and 5% Tween-80 in D5W (w/v); vehicle composition and preparation mimicked highest dose of TH1902 preparation. Tumor growth was monitored by two-dimensional measurements taken with an electronic caliper and tumor volume was calculated according to the following formula: tumor volume (mm^3) = π/6 × length × width^2. Data are expressed as mean ± SEM and were analyzed using GraphPad Prism software.
Figure 8 Effects of TH1902 and carboplatin combinations on A2780 ovarian cancer xenografts. A2780 cells were subcutaneously implanted in the flanks of athymic nude mice. Tumor volume measurements following bi-weekly administrations of (A) vehicle, docetaxel, TH1902, paclitaxel or carboplatin as single agents, or (B) administered once in combination using the same dosage as described in the methods section. Colored dots below indicate drug treatments for all groups. Data are represented as mean ± SEM (n = 5 mice/group).

[3] = test system: SORT1 in SKOV3 ovarian cancer cells; assay: Competition of TH19P01-Alexa^488 uptake, SKOV3; type: cell-based, human; settings: 10 µM neurotensin, 2 h, n = 4
Protocol: (§1) Cells were grown in 12-well plates in complete media for 24 h. Where required, cells were transiently transfected with 100 nM of siRNA (either a scrambled, control siRNA, or one that was directed against a particular mRNA) for 24 h using Lipofectamine 2000. Cells were next washed with PBS and then incubated in HBSS without phenol red for 2 h at 37 °C in the presence or absence of 200 nM Alexa^488-labeled TH19P01 peptide. Alexa^488-labeled TH19P01 peptide uptake was also measured with or without competition by an excess of unlabeled TH19P01 peptide (50 µM) or neurotensin (10 µM) during a 2 h uptake before washing with serum-free media. Cell fluorescence was evaluated in the FL1 channel using a C6 Accuri flow cytometer (BD Biosciences, Mississauga, ON, Canada).
(§2) Figure 4 Internalization of TH19P01-Alexa^488 peptide by SORT1 in ovarian cancer cell lines. […] (B) Uptake of TH19P01-Alexa^488 into two ovarian cancer cell lines was measured in the presence of excess concentrations of substrates known to bind to SORT1 (50 µM TH19P01 and 10 µM neurotensin). […] Results are expressed as normalized RFU according to measurements of control wells. […]

[4] = test system: SORT1 in ES-2 ovarian cancer cells; assay: Competition of TH19P01-Alexa^488 uptake, ES-2; type: cell-based, human; settings: 10 µM neurotensin, 2 h, n = 4
Protocol: as §1, §2

Compound	Water solubility [1]	Tumor growth inhibition [2] [%]	Tumor progression, Size Increase (x-Fold Day-0) ([2]; vehicle group endpoint, n = 5 mice/group)	TH19P01-Alexa^488 uptake with neurotensin [3]	TH19P01-Alexa^488 uptake with neurotensin [4]
CC(=O)O[C@H]1C(=O)[C@@]2(C)[C@H]([C@H](OC(=O)c3ccccc3)[C@]3(O)C[C@H](OC(=O)[C@H](O)[C@@H](NC(=O)c4ccccc4)c4ccccc4)C(C)=C1C3(C)C)[C@]1(OC(C)=O)CO[C@@H]1C[C@@H]2O [Paclitaxel, paclitaxel]	very poor water solubility	36	4.21		
neurotensin: known ligand of SORT1, synthesized in-house				reduced	reduced
